# Experimental data from PMC11851430, “Workflow for E3 Ligase Ligand Validation for PROTAC Development” (ACS Chemical Biology, 2025).
# Legend:
# [1] = molecular target: T1, MAPKAPK2A (Homo sapiens, UniProt P49137); test: DSF assay; assay type: binding; conditions: 20 µM compound
# T1 construct: purchased in-house DSF panel (SGC-style construct names; the trailing A/B is a construct suffix)
# [2] = molecular target: T2, FLT1 (Homo sapiens, UniProt P17948); test: DSF assay; assay type: binding; conditions: 20 µM compound
# T2 construct: purchased in-house DSF panel (SGC-style construct names; the trailing A/B is a construct suffix)
# T2 sequence (P17948 801-1158): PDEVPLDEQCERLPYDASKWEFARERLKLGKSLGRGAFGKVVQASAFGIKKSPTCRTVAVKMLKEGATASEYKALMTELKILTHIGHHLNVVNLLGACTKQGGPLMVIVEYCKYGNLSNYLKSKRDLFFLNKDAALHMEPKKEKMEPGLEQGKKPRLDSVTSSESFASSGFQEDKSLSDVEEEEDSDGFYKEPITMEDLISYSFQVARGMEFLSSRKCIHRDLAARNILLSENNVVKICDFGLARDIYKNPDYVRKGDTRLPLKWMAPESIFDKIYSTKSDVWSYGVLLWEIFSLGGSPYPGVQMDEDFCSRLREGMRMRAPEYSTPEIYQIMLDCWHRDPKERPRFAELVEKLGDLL
# [3] = molecular target: T3, MAPK13A (Homo sapiens, UniProt O15264); test: DSF assay; assay type: binding; conditions: 20 µM compound
# T3 construct: purchased in-house DSF panel (SGC-style construct names; the trailing A/B is a construct suffix)
# T3 sequence (O15264 1-365): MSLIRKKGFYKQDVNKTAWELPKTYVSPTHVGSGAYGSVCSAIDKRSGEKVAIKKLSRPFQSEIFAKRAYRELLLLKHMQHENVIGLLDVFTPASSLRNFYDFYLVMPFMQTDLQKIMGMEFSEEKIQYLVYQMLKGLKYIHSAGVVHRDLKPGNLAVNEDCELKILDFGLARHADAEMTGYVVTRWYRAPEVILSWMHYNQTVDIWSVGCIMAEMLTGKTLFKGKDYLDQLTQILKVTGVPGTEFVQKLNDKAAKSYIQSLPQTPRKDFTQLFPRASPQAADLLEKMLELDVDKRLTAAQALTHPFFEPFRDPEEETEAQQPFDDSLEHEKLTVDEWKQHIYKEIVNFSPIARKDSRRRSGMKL
# [4] = test system: RPS6KA6A; test: DSF assay; assay type: binding; conditions: 20 µM compound
# [5] = molecular target: T4, MAP3K5A (Homo sapiens, UniProt Q99683); test: DSF assay; assay type: binding; conditions: 20 µM compound
# T4 construct: purchased in-house DSF panel (SGC-style construct names; the trailing A/B is a construct suffix)
# [6] = molecular target: T5, AURKA^HiBiT (Homo sapiens, UniProt O14965); test: HiBiT assay, MV4-11 cells expressing AURKA^HiBiT; assay type: cell-based; conditions: 6 h; for rescue of AURKA degradation by cotreatment with proteasome inhibitor MG132 / rescue of AURKA levels by cotreatment with neddylation inhibitor MLN4924: MV4-11 AURKA^HiBiT cells; for AURKA^HiBiT protein levels: MV4-11 cells
# T5 construct: expressed in transfected cells
# T5 sequence (O14965 1-403): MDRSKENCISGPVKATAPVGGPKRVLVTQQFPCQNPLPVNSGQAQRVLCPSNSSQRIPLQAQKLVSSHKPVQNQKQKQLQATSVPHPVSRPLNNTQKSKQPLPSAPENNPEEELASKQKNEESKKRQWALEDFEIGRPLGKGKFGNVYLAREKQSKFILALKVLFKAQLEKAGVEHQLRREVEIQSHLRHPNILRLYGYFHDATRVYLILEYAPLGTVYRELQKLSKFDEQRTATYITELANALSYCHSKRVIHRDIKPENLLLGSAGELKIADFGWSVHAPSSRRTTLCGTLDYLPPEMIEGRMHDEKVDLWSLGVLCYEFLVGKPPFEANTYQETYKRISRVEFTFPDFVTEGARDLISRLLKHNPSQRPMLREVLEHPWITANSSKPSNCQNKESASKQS
# Method: (§1) The blots were incubated with respective primary antibodies at 1:1000 dilution (Cell Signaling technologies: Aurora A (D3E4Q), ITK (2F12) and GAPDH (D4C6R)) at 4 °C overnight. The blots were washed with TBS-T thrice and incubated with 1:5000 dilution of horseradish peroxidase (HRP)-labelled respective secondary antibodies (Cell Signaling technologies, Anti- […]
# (§2) The blots were washed with TBS-T thrice and then incubated with chemiluminescent HRP substrate (Bio-Rad) for 2 minutes. The blots were imaged and the signals were detected using the Amersham ImageQuant 800 (Cytiva).
# (§3) Cell culture. Human MV4-11 ([…]) and human Jurkat ([…]) cells were cultured in RPMI- […]
# (§4) °C in 5% CO2. Both media were supplemented with 10% FBS and 1% penicillin/streptomycin. […]
# Cell line generation. The stable cell line MV4-11 AURORA−HiBiT was generated as previously described.14 Lentiviral infection was used to generate the stable Jurkat HiBiT cell line. […] HiBiT Measurements. HiBiT assay was performed as described previously. 14 Briefly, MV4-11 and Jurkat HiBiT cells were seeded and treated with compounds for the indicated time. Nano-Glo HiBiT Lytic Detection System (Promega) was used for the assay and luminescence was measured on a Tecan Spark Multiplate reader (Tecan). DC50s were calculated using the dose-response (four parameters) equation in Prism (GraphPad).
# [7] = molecular target: T6, ITK (Homo sapiens, UniProt Q08881); test: Western blot assay; assay type: cell-based; conditions: Jurkat cells, 6 h
# T6 construct: endogenous in cells; host or cells: Jurkat
# T6 sequence (Q08881 1-620): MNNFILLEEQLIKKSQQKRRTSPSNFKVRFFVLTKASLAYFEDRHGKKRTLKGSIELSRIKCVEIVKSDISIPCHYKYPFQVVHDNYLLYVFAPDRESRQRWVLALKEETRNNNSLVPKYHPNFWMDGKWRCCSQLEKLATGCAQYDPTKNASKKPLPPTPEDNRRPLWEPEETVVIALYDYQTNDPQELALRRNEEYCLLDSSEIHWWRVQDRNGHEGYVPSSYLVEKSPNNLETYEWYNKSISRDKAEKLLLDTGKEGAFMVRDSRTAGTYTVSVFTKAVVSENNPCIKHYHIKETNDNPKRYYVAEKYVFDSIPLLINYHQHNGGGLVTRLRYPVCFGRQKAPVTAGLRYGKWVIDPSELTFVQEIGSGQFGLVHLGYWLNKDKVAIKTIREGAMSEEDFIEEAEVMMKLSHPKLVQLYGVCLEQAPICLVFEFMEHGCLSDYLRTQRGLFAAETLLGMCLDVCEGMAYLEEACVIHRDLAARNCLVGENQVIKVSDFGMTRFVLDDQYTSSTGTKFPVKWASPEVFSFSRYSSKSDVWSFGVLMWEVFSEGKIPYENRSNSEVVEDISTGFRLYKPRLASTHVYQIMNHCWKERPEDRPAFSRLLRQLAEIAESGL
# Method: Two mL of Jurkat cells were seeded into 6 well plates (Greiner) at a density of 5·10 5 cells/mL.
# The following day, cells were treated with compounds at according concentrations or DMSO for 6 hours and then lysed with 6 M Urea at 4 °C for 20 minutes. The lysates were centrifuged for 15 minutes at 16000 g and the supernatant was collected to perform the Western-Blot.
# Protein quantification was performed using nanodrop One. The SDS samples were prepared […]
# The samples were separated by a BIS-TRIS polyacrylamide gel polyacrylamide gel, 100 V for 1:45) followed by transfer to PVDF membranes (Millipore) at 350 mA for 140 minutes. The membranes were blocked using 5%wt/vol BSA (in TBS-T, 20 mM Tris-HCl, pH 7.5, 150 mM NaCl and 0.1% (vol/vol) Tween 20) at room temperature for 1 hour.
# as §1, §2, §3, §4
# T1 sequence (P49137 64-325): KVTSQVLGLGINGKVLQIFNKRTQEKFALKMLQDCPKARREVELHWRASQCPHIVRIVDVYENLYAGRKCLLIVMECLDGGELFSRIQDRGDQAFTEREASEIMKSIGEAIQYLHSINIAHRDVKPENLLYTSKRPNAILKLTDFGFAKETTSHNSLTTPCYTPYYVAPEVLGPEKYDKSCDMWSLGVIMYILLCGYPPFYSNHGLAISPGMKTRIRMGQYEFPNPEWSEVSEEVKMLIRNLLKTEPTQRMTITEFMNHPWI
# T4 sequence (Q99683 659-951): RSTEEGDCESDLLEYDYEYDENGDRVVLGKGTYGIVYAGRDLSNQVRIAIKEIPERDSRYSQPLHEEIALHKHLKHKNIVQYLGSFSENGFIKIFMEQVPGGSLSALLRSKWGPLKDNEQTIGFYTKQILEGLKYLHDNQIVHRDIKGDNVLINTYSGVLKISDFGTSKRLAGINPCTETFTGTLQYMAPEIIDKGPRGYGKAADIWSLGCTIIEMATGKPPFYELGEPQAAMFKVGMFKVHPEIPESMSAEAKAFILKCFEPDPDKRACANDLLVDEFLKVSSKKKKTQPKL
SMILES,ΔTm at 20 µM [1] [°C],ΔTm at 20 µM [2] [°C],ΔTm at 20 µM [3] [°C],ΔTm at 20 µM [5] [°C],rescue of AURKA degradation by cotreatment with proteasome inhibitor MG132 [6],rescue of AURKA levels by cotreatment with neddylation inhibitor MLN4924 [6],AURKA^HiBiT protein levels [6],ITK protein levels (Western blot) [7],ΔTm [4] [°C]
CC(C)(C)OC(=O)NCCOCCOCCOCCOCCC(=O)N1CCN(c2cc(Nc3cc(C4CC4)[nH]n3)nc(Nc3ccc(CC#N)cc3)n2)CC1 [4-L],0.42,11.7,3.4,8.63,,,,,0.07
Cc1ncsc1-c1ccc(CNC(=O)[C@@H]2C[C@H](O)CN2C(=O)[C@@H](NC(=O)CCOCCOCCOCCN2CCN(c3cc(Nc4cc(C5CC5)[nH]n4)nc(Nc4ccc(CC#N)cc4)n3)CC2)C(C)(C)C)cc1 [4-a^neg],,,,,,,weak reduction of AURKA levels,did not cause any degradation of ITK,
Cc1ncsc1-c1ccc(CNC(=O)[C@@H]2C[C@@H](O)CN2C(=O)[C@@H](NC(=O)CCOCCOCCOCCN2CCN(c3cc(Nc4cc(C5CC5)[nH]n4)nc(Nc4ccc(CC#N)cc4)n3)CC2)C(C)(C)C)cc1 [4-a],,,,,complete rescue,only partial rescue,dose-dependent degradation of AURKA,dose-dependent degradation of ITK,

# Continued, in another order:
ΔTm at 20 µM [1] [°C],ΔTm at 20 µM [2] [°C],ΔTm at 20 µM [3] [°C],ΔTm at 20 µM [5] [°C],rescue of AURKA degradation by cotreatment with proteasome inhibitor MG132 [6],rescue of AURKA levels by cotreatment with neddylation inhibitor MLN4924 [6],AURKA^HiBiT protein levels [6],ITK protein levels (Western blot) [7],SMILES,ΔTm [4] [°C]
0.53,9.16,3.76,6.97,,,,,CCOC(=O)c1cc(Nc2cc(C3CC3)[nH]n2)nc(Nc2ccc(CC#N)cc2)n1 [compound 5],0.34
,,,,complete rescue,only partial rescue,dose-dependent degradation of AURKA,dose-dependent degradation of ITK,Cc1ncsc1-c1ccc(CNC(=O)[C@@H]2C[C@@H](O)CN2C(=O)[C@@H](NC(=O)CCOCCOCCOCCOCCN2CCN(c3ccc(Nc4ncc(Cl)c(Nc5ccccc5C(N)=O)n4)cc3)CC2)C(C)(C)C)cc1 [6-b],
,,,,,,weak reduction of AURKA levels,did not cause any degradation of ITK,Cc1ncsc1-c1ccc(CNC(=O)[C@@H]2C[C@H](O)CN2C(=O)[C@@H](NC(=O)CCOCCOCCOCCOCCN2CCN(c3ccc(Nc4ncc(Cl)c(Nc5ccccc5C(N)=O)n4)cc3)CC2)C(C)(C)C)cc1 [6-b^neg],
0.95,8.06,3.98,8.95,,,,,CC(C)(C)OC(=O)NCCCOCCOCCOCCCNC(=O)c1cc(Nc2cc(C3CC3)[nH]n2)nc(Nc2ccc(CC#N)cc2)n1 [5-L],0.35
